Source: patent US5461046A, “1-,2-,3-,4-,5-,6-,7-,8-, and/or 9-substituted dibenzoxazepine compounds, pharmaceutical compositions and methods for treating pain” (G. D. Searle & Co., priority 1993, dated 1995)
Read-outs that look alike come from different tables or passages of the source.

Assays:
[1] = molecular target: T1, prostaglandin E2-induced contractions of segments of guinea pig ileum (Cavia porcellus, UniProt A0A286XHJ6); test: Prostaglandin (PGE) Antagonism Assay in guinea pig ileum; settings: initial concentration 3 micromolar; estimated pA2 (slope -1.0 assumed) or Schild plot pA2
T1 construct: The ilea were then quickly removed from the guinea pigs; from tissue; host or cells: ileum segments of male albino guinea pigs
T1 sequence (A0A286XHJ6 1-405): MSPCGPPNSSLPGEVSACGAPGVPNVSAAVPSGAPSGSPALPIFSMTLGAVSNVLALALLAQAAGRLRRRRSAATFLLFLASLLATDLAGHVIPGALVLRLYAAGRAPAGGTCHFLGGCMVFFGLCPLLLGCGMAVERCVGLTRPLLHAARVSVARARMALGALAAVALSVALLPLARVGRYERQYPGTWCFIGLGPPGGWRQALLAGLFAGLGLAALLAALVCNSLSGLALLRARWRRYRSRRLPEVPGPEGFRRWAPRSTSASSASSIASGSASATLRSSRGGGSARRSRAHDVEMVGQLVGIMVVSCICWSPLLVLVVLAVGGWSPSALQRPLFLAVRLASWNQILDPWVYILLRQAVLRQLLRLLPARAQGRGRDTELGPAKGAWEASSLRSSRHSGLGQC
Description: In order to determine the effectiveness of several of the compounds of the present invention ("test compounds") as prostaglandin E2 antagonists,a prostaglandin antagonism assay was conducted, as described below, to determine the ability of these compounds to inhibit prostaglandin E2 -induced contractions of segments of guinea pig ileum.
Male albino guinea pigs weighing 200 to 500 grams were sacrificed by cervical dislocation. The ilea were then quickly removed from the guinea pigs and placed in a modified Tyrode solution, a solution which is known to those skilled in the art, containing one-half of the usual amount of magnesium ions.
Segments of ileum about 2 cm long were then cut and mounted in a 10-mL tissue bath containing the modified Tyrode solution. The solution was maintained at 37° C. and aerated with a gaseous mixture of 95% oxygen and 5% carbon dioxide. Data for a control prostaglandin E2 dose response curve plotting concentration of prostaglandin E2 versus the intensity of contractions, detected isotonically, was then obtained by experimentally adjusting the dose of the prostaglandin E2 being injected into the tissue bath, in a manner known by those of skill in the art.
Solutions or suspensions containing an initial concentration (3 micromolar) of a test compound in modified Tyrode solution ("test solutions/suspensions") were then separately substituted for the control bath solution. Each test solution/suspension was then kept in constant contact with the ileum tissue, except for brief periods to drain the bath in preparation for rinsing with fresh test solution/suspension. A second prostaglandin E2 dose response curve was then generated for prostaglandin E2 in the presence of a test compound.
A dose ratio of EC50 doses was then calculated from the results of each test in a manner known by those of skill in the art. A test compound was determined to be "active" if the initial concentration used yielded at least a two-fold shift (dose ratio greater than or equal to 2) in the dose response curve for prostaglandin E2.
The compounds of the present invention which were tested in this assay, and for which results are presented in Table 2, correspond to the particular examples specified in Table 2.

[2] = tested on: phenylbenzoquinone (PBQ)-induced writhing in mice; test: Writhing Assay (phenylbenzoquinone-induced writhing, analgesia); assay type: in vivo, Charles River male albino mice; settings: Mus musculus, 25 min, 25 min before PBQ i.p., number of mice out of ten with analgesia
Text: The Writhing Assay is one of the most widely-used experimental procedures for measuring the analgesic activity of different narcotic and nonnarcotic analgesic agents, and involves the continuous, chemically-induced pain of visceral origin to an animal, such as a mouse or rat. [Gyires et al., Arch. int. Pharmacodyn, 267, 131-140 (1984); C. Vander Wende et al., Fed. Proc., 15, 494 (1956); Koster et al., Fed. Proc., 18, 412 (1959); and Witken et al., J. Pharmacol. exp. Ther., 133, 400-408 (1961).] Chemicals which may be used to induce this pain include phenylbenzoquinone (PBQ) and acetic acid. As a result of the chemical irritation to the animal, a characteristic stretching and writhing of the animal (dorsiflexion of the animal's back, extension of its hindlimbs and the strong contraction of its abdominal musculature) will generally occur. […] Drugs which reduce the number of writhes of the animal appear to restore the normal nociceptive threshold of the animal.
Charles River male albino mice, weighing 20 to 30 grams were used in this assay.
Twenty-five minutes after subcutaneous or intragastric administration to ten mice of 30 mg per kilogram of body weight of a compound of the present invention ("test compound"), […] per 10 g of body weight of a 0.025% w/v solution of PBQ was injected intraperitoneally into each mouse. Ten mice which were given saline in place of a test compound of the invention were used as a control group.
Five minutes later, each mouse was individually placed into a glass beaker for observation, and the number of writhes occurring during the following ten-minute period was counted.
A test compound was considered to have produced analgesia in a mouse if, in accordance with the conditions set forth above, and under the test criteria employed for this assay, after the administration of 30 mg per kilogram of body weight of a compound of the present invention to the mouse, the number of writhes elicited by a mouse injected with PBQ was equal to, or less than, one-half the median number of writhes recorded for the saline-treated control group of mice that day, as described by Taber in "Predictive Value of Analgesic Assays in Mice and Rats," Advances in Biochemical Psychopharmacology, 8, 191 (1974).
The results for the particular compounds of the present invention analyzed in this assay, and discussed in the examples identified below which correspond thereto, are presented in Table 2 hereinbelow under the heading "WRITHING ASSAY." The fractions indicate the number of mice out of ten in which a test compound produced analgesia.

[3] = ip, 30 mg per kg i.g., read-out: WRITHING ASSAY Number Out of Ten I.G. (converted)
[4] = sc, 30 mg per kg s.c., read-out: WRITHING ASSAY Number Out of Ten S.C.

| SMILES | Kb [1] [nM] | responders at 30 mg/kg [2, 3] [%] | responders at 30 mg/kg [2, 4] [%] |
| --- | --- | --- | --- |
| CCS(=O)(=O)CCC(=O)NNC(=O)N1Cc2ccccc2Oc2cc(C(=O)OC)ccc21 [Example 2, Dibenz[b,f][1,4]oxazepine-7,10(11H) dicarboxylic acid, 7-methyl ester, 10-[2-[3-(ethylsulfonyl)-1-oxopropyl]hydrazide]] | 2000 | 33.3 | 30 |
| CCS(=O)(=O)CCC(=O)NNC(=O)N1Cc2ccccc2Oc2ccc(C(=O)OC(C)(C)C)cc21 [Example 3, Dibenz[b,f][1,4]oxazepine-8,10(11H)-dicarboxylic acid, 8-(1,1-dimethylethyl) ester, 10-[2-[3-(ethylsulfonyl)-1-oxopropyl]hydrazide]] | 1780 | 40 | 30 |
| CCS(=O)(=O)CCC(=O)NNC(=O)N1Cc2ccccc2Oc2ccc(C(=O)O)cc21 [Example 4, Dibenz[b,f][1,4]oxazepine-8,10(11H)-dicarboxylic acid, 10-[2-[3-(ethylsulfonyl)-1-oxopropyl]hydrazide]] | – | 30 | 40 |
| CCS(=O)(=O)CCC(=O)NNC(=O)N1Cc2ccccc2Oc2cc(C(=O)OC(C)(C)C)ccc21 [Example 5, Dibenz[b,f][1,4]oxazepine-7,10(11H)-dicarboxylic acid, 7-(1,1-dimethylethyl) ester, 10-[2-[3-(ethylsulfonyl)-1-oxopropyl]hydrazide]] | 1170 | 20 | 30 |
| CCS(=O)(=O)CCC(=O)NNC(=O)N1Cc2ccccc2Oc2ccc(F)cc21 [Example 7, 8-fluorodibenz[b,f][1,4]oxazepine-10(11H)-carboxylic acid, 2-[3-(ethylsulfonyl)-1-oxopropyl]hydrazide] | – | 40 | 60 |
| CCS(=O)(=O)CCC(=O)NNC(=O)N1Cc2cc(Cl)ccc2Oc2ccccc21 [Example 8, 2-chlorodibenz[b,f][1,4]oxazepine-10(11H)-carboxylic acid, 2-[3-(ethylsulfonyl)-1-oxopropyl]hydrazide] | – | 60 | 60 |
| CCS(=O)(=O)CCC(=O)NNC(=O)N1Cc2cc(Cl)ccc2Oc2ccc(Cl)cc21 [Example 9, 2,8-dichlorodibenz[b,f][1,4]oxazepine-10(11H)-carboxylic acid, 2-[3-(ethylsulfonyl)-1-oxopropyl]hydrazide] | 1580 | 40 | 30 |
| CCS(=O)(=O)CCC(=O)NNC(=O)N1Cc2ccccc2Oc2ccc(C#N)cc21 [Example 11, 8-cyanodibenz[b,f][1,4]oxazepine-10(11H)-carboxylic acid, 2-[3-(ethylsulfonyl)-1-oxopropyl]hydrazide] | – | 55.6 | 50 |
| CCS(=O)(=O)CCC(=O)NNC(=O)N1Cc2ccccc2Oc2ccc(NS(C)(=O)=O)cc21 [Example 14, 8-[(methylsulfonyl)amino]dibenz[b,f][1,4]-oxazepine-10(11H)-carboxylic acid, 2-[3-(ethylsulfonyl)-1-oxopropyl]hydrazide] | – | 60 | 60 |
| CCS(=O)(=O)CCC(=O)NNC(=O)N1Cc2ccccc2Sc2ccc(Cl)cc21 [Example 22, 8-chloro-10,11-dihydrodibenzo[b,f][1,4]thiazepine-10-(11H) carboxylic acid, 2-[3-(ethysulfonyl)-1-oxopropyl]hydrazide] | – | 60 | 30 |
| CCS(=O)(=O)CCC(=O)NNC(=O)N1Cc2ccccc2S(=O)(=O)c2ccc(Cl)cc21 [Example 23, 8-chloro-10,11-dihydrodibenzo[b,f][1,4]thiazepine-10(11H) carboxylic acid, 2-[3-(ethylsulfonyl)-1-oxopropyl]hydrazide, 5,5-dioxide] | – | 30 | 70 |

More lines, main results first:

| Kb [1] [nM] | SMILES | responders at 30 mg/kg [2, 3] [%] | responders at 30 mg/kg [2, 4] [%] |
| --- | --- | --- | --- |
| 2880 | CCS(=O)(=O)CCC(=O)NNC(=O)N1Cc2ccccc2Oc2ccc(C(=O)OC)cc21 [Example 1, Dibenz [b,f][1,4]oxazepine-8,10(11H)dicarboxylic acid, 8-methyl ester, 10-[2-[3-(ethylsulfonyl)-1-oxopropyl]hydrazide]] | 30 | 50 |
| 2630 | CCS(=O)(=O)CCC(=O)NNC(=O)N1Cc2ccccc2Oc2cc(C(=O)O)ccc21 [Example 6, Dibenz[b,f][1,4]oxazepine-7,10(11H)-dicarboxylic acid, 10-[2-[3-(ethylsulfonyl)-1-oxopropyl]hydrazide]] | 40 | 20 |
| 2880 | CCS(=O)(=O)CCC(=O)NNC(=O)N1Cc2ccccc2Oc2ccc([N+](=O)[O-])cc21 [Example 10, 8-nitrodibenz[b,f][1,4]oxazepine-10(11H)-carboxylic acid, 2-[3-(ethylsulfonyl)-1-oxopropyl]hydrazide] | 40 | 40 |
| 1150 | CCS(=O)(=O)CCC(=O)NNC(=O)N1Cc2ccccc2Oc2c(Cl)cccc21 [Example 12, 6-chlorodibenz[b,f][1,4]oxazepine-10(11H)-carboxylic acid, 2-[3-(ethylsulfonyl)-1-oxopropyl]hydrazide] | 30 | 40 |
| 2820 | CCS(=O)(=O)CCC(=O)NNC(=O)N1Cc2ccccc2Oc2ccc(N)cc21 [Example 13, 8-aminodibenz[b,f][1,4]oxazepine-10(11H)-carboxylic acid, 2-[3-(ethylsulfonyl)-1-oxopropyl]hydrazide] | 40 | 40 |
| 708 | CCN(CC)c1ccc2c(c1)N(C(=O)NNC(=O)CCS(=O)(=O)CC)Cc1ccccc1O2 [Example 15, 8-(diethylamino)dibenz[b,f][1,4]oxazepine-10(11H)-carboxylic acid, 2-[3-(ethylsulfonyl)-1-oxopropyl]hydrazide] | 30 | 10 |
| 2000 | CCS(=O)(=O)CCC(=O)NNC(=O)N1Cc2ccccc2Oc2ccc(OC)cc21 [Example 16, 8-methoxydibenz[b,f][1,4]oxazepine-10(11H)-carboxylic acid, 2-[3-(ethylsulfonyl)-1-oxopropyl]hydrazide] | 60 | 20 |
